Test results reported in ChEMBL document CHEMBL3046740, “Lonazolac analogues: molecular modeling, synthesis, and in vivo anti-inflammatory activity” (2009).

Tests used:
Type in all cases: functional
[1] = test system: Rattus norvegicus; test: Anti-inflammatory activity in Rattus norvegicus albino (rat) assessed as inhibition of carrageenan-induced paw edema at 50 mg/kg, po administered 30 min before carrageenan challenge measured after 3 hr
[2] = test system: Rattus norvegicus; test: Anti-inflammatory activity in Rattus norvegicus albino (rat) assessed as inhibition of carrageenan-induced paw edema at 50 mg/kg, po administered 30 min before carrageenan challenge measured after 4 hr
[3] = test system: Rattus norvegicus; test: Anti-inflammatory activity in Rattus norvegicus albino (rat) assessed as inhibition of carrageenan-induced paw edema at 50 mg/kg, po administered 30 min before carrageenan challenge measured after 1 hr
[4] = test system: Mus musculus; test: Analgesic activity in Mus musculus (mouse) assessed as paw withdrawal latency time at 50 mg/kg, ip after 30 min; conditions: route intraperitoneal
[5] = test system: Rattus norvegicus; test: Anti-inflammatory activity in Rattus norvegicus albino (rat) assessed as inhibition of carrageenan-induced paw edema at 50 mg/kg, po administered 30 min before carrageenan challenge measured after 24 hr
[6] = test system: Rattus norvegicus; test: Anti-inflammatory activity in Rattus norvegicus albino (rat) assessed as inhibition of carrageenan-induced paw edema at 50 mg/kg, po administered 30 min before carrageenan challenge measured after 2 hr
[7] = test system: Rattus norvegicus; test: Anti-inflammatory activity in Rattus norvegicus albino (rat) assessed as inhibition of carrageenan-induced paw edema at 10 mg/kg, po administered 30 min before carrageenan challenge measured after 24 hr
[8] = test system: Rattus norvegicus; test: Anti-inflammatory activity in Rattus norvegicus albino (rat) assessed as inhibition of carrageenan-induced paw edema at 10 mg/kg, po administered 30 min before carrageenan challenge measured after 1 hr
[9] = test system: Mus musculus; test: Analgesic activity in Mus musculus (mouse) assessed as paw withdrawal latency time at 10 mg/kg, ip after 30 min; conditions: route intraperitoneal
[10] = test system: Rattus norvegicus; test: Anti-inflammatory activity in Rattus norvegicus albino (rat) assessed as inhibition of carrageenan-induced paw edema at 10 mg/kg, po administered 30 min before carrageenan challenge measured after 3 hr
[11] = test system: Rattus norvegicus; test: Anti-inflammatory activity in Rattus norvegicus albino (rat) assessed as inhibition of carrageenan-induced paw edema at 10 mg/kg, po administered 30 min before carrageenan challenge measured after 4 hr
[12] = test system: Rattus norvegicus; test: Anti-inflammatory activity in Rattus norvegicus albino (rat) assessed as inhibition of carrageenan-induced paw edema at 10 mg/kg, po administered 30 min before carrageenan challenge measured after 2 hr

Row | Compound | inhibition in vivo at 50 mg/kg [1] [%] | inhibition in vivo at 50 mg/kg [2] [%] | inhibition in vivo at 50 mg/kg [3] [%] | Time [4] [s] | inhibition in vivo at 50 mg/kg [5] [%] | inhibition in vivo at 50 mg/kg [6] [%] | inhibition in vivo at 10 mg/kg [7] [%] | inhibition in vivo at 10 mg/kg [8] [%] | Time [9] [s] | inhibition in vivo at 10 mg/kg [10] [%] | inhibition in vivo at 10 mg/kg [11] [%] | inhibition in vivo at 10 mg/kg [12] [%]
1 | O=C(O)CCC(=O)/C=C/c1cn(-c2ccccc2)nc1-c1ccc(Cl)cc1 | 6.32 | 8.64 | 3.43 | 4.09 | 2.27 | 10.9 | – | – | – | – | – | –
2 | Cc1ccc(-c2nn(-c3ccccc3)cc2/C=C/C(=O)CCC(=O)O)cc1 | 11.5 | 13 | 4.41 | 6.47 | 3.79 | 6.25 | – | – | – | – | – | –
3 | NC(=O)c1ccccc1NC(=O)c1cn(-c2ccccc2)nc1-c1ccccc1 | 14.4 | 9.88 | 17.6 | 6.29 | -3.79 | 13.5 | – | – | – | – | – | –
4 | NC(=O)c1ccccc1NC(=O)c1cn(-c2ccccc2)nc1-c1ccc(Cl)cc1 | 3.45 | 9.26 | 1.96 | 4.89 | 15.2 | 9.38 | – | – | – | – | – | –
5 | NC(=O)c1ccccc1OC(=O)c1cn(-c2ccccc2)nc1-c1ccc(Br)cc1 | 8.6 | 6.14 | 26 | 7.4 | 3.09 | 10.4 | – | – | – | – | – | –
6 | CC(=O)Nc1ccc(OC(=O)c2cn(-c3ccccc3)nc2-c2ccc(Cl)cc2)cc1 | 16.7 | 16.1 | 17.8 | 18.83 | 3.79 | 15.6 | – | – | – | – | – | –
7 | CC(=O)Nc1ccc(OC(=O)c2cn(-c3ccccc3)nc2-c2ccc(C)cc2)cc1 | 6.32 | 3.7 | 2.94 | 8.32 | 9.09 | 4.17 | – | – | – | – | – | –
8 | O=C(O)CCC(=O)/C=C/c1cn(-c2ccccc2)nc1-c1ccccc1 | 15.5 | 23.5 | 27.9 | 18.51 | 8.33 | 13.5 | – | – | – | – | – | –
9 | COc1ccc2c(c1)c(CC(=O)O)c(C)n2C(=O)c1ccc(Cl)cc1 [INDOMETHACIN] | – | – | – | – | – | – | 12.9 | 30.9 | 10.5 | 21.8 | 24.7 | 19.3
